Measured values: patent US20020010341A1, “Use of thioamide oxazolidinones for the treatment of bone resorption and osteoporosis” (priority 2000, published 2002)

Experiments:
Assay type in all cases: in vivo
rats [1] = test: 4-week oral toxicity study in rats with 4 and 8 week recovery
Procedure: (§1) The toxicity of the compound of Example 2 was evaluated in rats treated orally with 30, 60, 120, or 200 mg/kg/day of the compound of Example 2, water, or vehicle (containing 80% propylene glycol, 5% cremophor, and 30-mg/ml povidone) for 4 weeks given in 2 divided doses at 8 hours apart. Reversibility of drug-induced changes was determined 4 and 8 weeks following drug withdrawal. The pathogenesis of the bone changes was evaluated in a study in rats treated with 200 mg/kg/day for 3 or 7 days. TGF-betal protein levels in bone marrow supernatants and serum were determined using ELISA at the end of each of the dosing period. Toxicity was evaluated using clinical, hematological, biochemical, and pathologic end points.

rats [2] = test: Pathogenesis of the bone changes, rats treated for 3 or 7 days; settings: oral
Procedure: as §1

TGF-betal protein = TGF-betal protein levels in bone marrow supernatants and serum by ELISA; settings: rats
Procedure: as §1

Q: `CC(=S)NC[C@H]1CN(c2ccc(N3CC[S+]([O-])CC3)c(F)c2)C(=O)O1` [Example 2, (S)-N-[[3-[3-Fluoro-4-(4-thiomorpholinyl)phenyl] -2-oxo-5-oxazolidinyl]methyl]thio-acetamide, thiomorpholine S-oxide] was tested. Which “persistence of newly formed bone spicules after drug withdrawal” value (rats [1]; 4 and 8 weeks after drug withdrawal) did it give?
A: still present after 4 and 8 weeks of drug withdrawal

Q: And the bone marrow changes (rats [1]; oral)?
A: did not show changes other than hypocellularity related to hematopoietic suppression

Q: And the “bone mass and density of trabecular (spongy) bone of sternum, femur/tibia, vertebrae, basal cranium” value (rats [1]; oral, 120 and 200 mg/kg/day)?
A: caused an increase in bone mass and density (hyperostosis)

Q: And the “endosteal cortical bone formation” value (rats [1]; oral, 120 and 200 mg/kg/day)?
A: occurred rarely

Q: What about the toxic effects (rats [1]; oral, 120 and 200 mg/kg/day) of the same compound?
A: anorexia, weight loss, GI effects, hematopoietic suppression and lymphoid depletion

Q: What about the “marrow cavity histology at Day 28” value (rats [1]; oral, Day 28) of the same compound?
A: marrow cavities were traversed by abundant normal looking trabecular bone

Q: And the clinical tolerability (rats [1]; oral, all doses but 200 mg/kg/day (30, 60, 120 mg/kg/day), 4 weeks, 2 divided doses)?
A: well tolerated clinically

Q: What about the “onset of hyperostosis (osteoblast proliferation, osteoid deposition)” value (rats [2]; 200 mg/kg/day for 3 or 7 days) of the same compound?
A: became evident by Day 7

Q: And the “osseous changes on Day 3” value (rats [2]; 200 mg/kg/day, Day 3)?
A: no significant osseous changes

Q: What about the “Serum TGF-beta I” value (TGF-betal protein; Day 3, ELISA) of the same compound?
A: slightly but significantly decreased

Q: What about the “TGF-betal in marrow supernatants” value (TGF-betal protein; Day 3, ELISA) of the same compound?
A: modestly but significantly increased

Q: What about the “TGF-betal in marrow supernatants” value (TGF-betal protein; Day 7 or 28, ELISA) of the same compound?
A: not on Day 7 or 28
